± gives the expanded uncertainty stated by the source.
Conditions: Liquid, Vibrating tube method

SMILES: CCO [ethanol]
- mass density (283.15 K, 100 kPa): 798 ± 0.2 kg/m3
- mass density (283.15 K, 5000 kPa): 802 ± 0.3 kg/m3
- mass density (283.15 K, 10000 kPa): 805.9 ± 0.3 kg/m3
- mass density (283.15 K, 15000 kPa): 809.5 ± 0.3 kg/m3
- mass density (283.15 K, 20000 kPa): 813 ± 0.3 kg/m3
- mass density (283.15 K, 25000 kPa): 816.4 ± 0.3 kg/m3
- mass density (283.15 K, 30000 kPa): 819.7 ± 0.4 kg/m3
- mass density (283.15 K, 35000 kPa): 822.8 ± 0.4 kg/m3
- mass density (283.15 K, 40000 kPa): 825.9 ± 0.4 kg/m3
- mass density (283.15 K, 45000 kPa): 828.8 ± 0.4 kg/m3
- mass density (293.15 K, 100 kPa): 789.5 ± 0.2 kg/m3
- mass density (293.15 K, 5000 kPa): 793.7 ± 0.3 kg/m3
- mass density (293.15 K, 10000 kPa): 797.8 ± 0.3 kg/m3
- mass density (293.15 K, 15000 kPa): 801.6 ± 0.3 kg/m3
- mass density (293.15 K, 20000 kPa): 805.3 ± 0.3 kg/m3
- mass density (293.15 K, 25000 kPa): 808.9 ± 0.3 kg/m3
- mass density (293.15 K, 30000 kPa): 812.3 ± 0.4 kg/m3
- mass density (293.15 K, 35000 kPa): 815.6 ± 0.4 kg/m3
- mass density (293.15 K, 40000 kPa): 818.7 ± 0.4 kg/m3
- mass density (293.15 K, 45000 kPa): 821.8 ± 0.4 kg/m3
- mass density (303.15 K, 100 kPa): 780.9 ± 0.2 kg/m3
- mass density (303.15 K, 5000 kPa): 785.3 ± 0.3 kg/m3
- mass density (303.15 K, 10000 kPa): 789.6 ± 0.3 kg/m3
- mass density (303.15 K, 15000 kPa): 793.7 ± 0.3 kg/m3
- mass density (303.15 K, 20000 kPa): 797.5 ± 0.3 kg/m3
- mass density (303.15 K, 25000 kPa): 801.3 ± 0.3 kg/m3
- mass density (303.15 K, 30000 kPa): 804.8 ± 0.4 kg/m3
- mass density (303.15 K, 35000 kPa): 808.2 ± 0.4 kg/m3
- mass density (303.15 K, 40000 kPa): 811.5 ± 0.4 kg/m3
- mass density (303.15 K, 45000 kPa): 814.7 ± 0.4 kg/m3
- mass density (313.15 K, 100 kPa): 772.1 ± 0.2 kg/m3
- mass density (313.15 K, 5000 kPa): 776.8 ± 0.3 kg/m3
- mass density (313.15 K, 10000 kPa): 781.3 ± 0.3 kg/m3
- mass density (313.15 K, 15000 kPa): 785.6 ± 0.3 kg/m3
- mass density (313.15 K, 20000 kPa): 789.6 ± 0.3 kg/m3
- mass density (313.15 K, 25000 kPa): 793.5 ± 0.4 kg/m3
- mass density (313.15 K, 30000 kPa): 797.2 ± 0.4 kg/m3
- mass density (313.15 K, 35000 kPa): 800.8 ± 0.4 kg/m3
- mass density (313.15 K, 40000 kPa): 804.2 ± 0.4 kg/m3
- mass density (313.15 K, 45000 kPa): 807.6 ± 0.5 kg/m3
- mass density (323.15 K, 100 kPa): 763.3 ± 0.2 kg/m3
- mass density (323.15 K, 5000 kPa): 768.3 ± 0.3 kg/m3
- mass density (323.15 K, 10000 kPa): 773 ± 0.3 kg/m3
- mass density (323.15 K, 15000 kPa): 777.6 ± 0.3 kg/m3
- mass density (323.15 K, 20000 kPa): 781.8 ± 0.3 kg/m3
- mass density (323.15 K, 25000 kPa): 785.9 ± 0.4 kg/m3
- mass density (323.15 K, 30000 kPa): 789.7 ± 0.4 kg/m3
- mass density (323.15 K, 35000 kPa): 793.5 ± 0.4 kg/m3
- mass density (323.15 K, 40000 kPa): 797.1 ± 0.4 kg/m3
- mass density (323.15 K, 45000 kPa): 800.5 ± 0.5 kg/m3
- mass density (333.15 K, 100 kPa): 754 ± 0.2 kg/m3
- mass density (333.15 K, 5000 kPa): 759.3 ± 0.3 kg/m3
- mass density (333.15 K, 10000 kPa): 764.3 ± 0.3 kg/m3
- mass density (333.15 K, 15000 kPa): 769.1 ± 0.3 kg/m3
- mass density (333.15 K, 20000 kPa): 773.6 ± 0.3 kg/m3
- mass density (333.15 K, 25000 kPa): 777.8 ± 0.4 kg/m3
- mass density (333.15 K, 30000 kPa): 781.9 ± 0.4 kg/m3
- mass density (333.15 K, 35000 kPa): 785.8 ± 0.4 kg/m3
- mass density (333.15 K, 40000 kPa): 789.5 ± 0.5 kg/m3
- mass density (333.15 K, 45000 kPa): 793.1 ± 0.5 kg/m3
- mass density (343.15 K, 100 kPa): 744.5 ± 0.2 kg/m3
- mass density (343.15 K, 5000 kPa): 750.1 ± 0.3 kg/m3
- mass density (343.15 K, 10000 kPa): 755.5 ± 0.3 kg/m3
- mass density (343.15 K, 15000 kPa): 760.5 ± 0.3 kg/m3
- mass density (343.15 K, 20000 kPa): 765.3 ± 0.4 kg/m3
- mass density (343.15 K, 25000 kPa): 769.8 ± 0.4 kg/m3
- mass density (343.15 K, 30000 kPa): 774 ± 0.4 kg/m3
- mass density (343.15 K, 35000 kPa): 778.1 ± 0.4 kg/m3
- mass density (343.15 K, 40000 kPa): 782 ± 0.5 kg/m3
- mass density (343.15 K, 45000 kPa): 785.7 ± 0.5 kg/m3
- mass density (353.15 K, 5000 kPa): 740.6 ± 0.3 kg/m3
- mass density (353.15 K, 10000 kPa): 746.4 ± 0.3 kg/m3
- mass density (353.15 K, 15000 kPa): 751.7 ± 0.3 kg/m3
- mass density (353.15 K, 20000 kPa): 756.7 ± 0.4 kg/m3
- mass density (353.15 K, 25000 kPa): 761.5 ± 0.4 kg/m3
- mass density (353.15 K, 30000 kPa): 766 ± 0.4 kg/m3
- mass density (353.15 K, 35000 kPa): 770.2 ± 0.4 kg/m3
- mass density (353.15 K, 40000 kPa): 774.3 ± 0.5 kg/m3
- mass density (353.15 K, 45000 kPa): 778.2 ± 0.5 kg/m3

SMILES: Cc1ccccc1 [toluene]
- mass density (283.15 K, 100 kPa): 876.1 ± 0.2 kg/m3
- mass density (283.15 K, 5000 kPa): 879.5 ± 0.2 kg/m3
- mass density (283.15 K, 10000 kPa): 882.9 ± 0.3 kg/m3
- mass density (283.15 K, 15000 kPa): 886.1 ± 0.3 kg/m3
- mass density (283.15 K, 20000 kPa): 889.3 ± 0.3 kg/m3
- mass density (283.15 K, 25000 kPa): 892.4 ± 0.3 kg/m3
- mass density (283.15 K, 30000 kPa): 895.3 ± 0.3 kg/m3
- mass density (283.15 K, 35000 kPa): 898.2 ± 0.3 kg/m3
- mass density (283.15 K, 40000 kPa): 901 ± 0.3 kg/m3
- mass density (283.15 K, 45000 kPa): 903.7 ± 0.3 kg/m3
- mass density (293.15 K, 100 kPa): 866.8 ± 0.2 kg/m3
- mass density (293.15 K, 5000 kPa): 870.5 ± 0.2 kg/m3
- mass density (293.15 K, 10000 kPa): 874.1 ± 0.3 kg/m3
- mass density (293.15 K, 15000 kPa): 877.5 ± 0.3 kg/m3
- mass density (293.15 K, 20000 kPa): 880.8 ± 0.3 kg/m3
- mass density (293.15 K, 25000 kPa): 884 ± 0.3 kg/m3
- mass density (293.15 K, 30000 kPa): 887.1 ± 0.3 kg/m3
- mass density (293.15 K, 35000 kPa): 890.1 ± 0.3 kg/m3
- mass density (293.15 K, 40000 kPa): 893 ± 0.3 kg/m3
- mass density (293.15 K, 45000 kPa): 895.9 ± 0.3 kg/m3
- mass density (303.15 K, 100 kPa): 857.5 ± 0.2 kg/m3
- mass density (303.15 K, 5000 kPa): 861.4 ± 0.2 kg/m3
- mass density (303.15 K, 10000 kPa): 865.2 ± 0.3 kg/m3
- mass density (303.15 K, 15000 kPa): 868.8 ± 0.3 kg/m3
- mass density (303.15 K, 20000 kPa): 872.3 ± 0.3 kg/m3
- mass density (303.15 K, 25000 kPa): 875.7 ± 0.3 kg/m3
- mass density (303.15 K, 30000 kPa): 879 ± 0.3 kg/m3
- mass density (303.15 K, 35000 kPa): 882.1 ± 0.3 kg/m3
- mass density (303.15 K, 40000 kPa): 885.2 ± 0.3 kg/m3
- mass density (303.15 K, 45000 kPa): 888.1 ± 0.3 kg/m3
- mass density (313.15 K, 100 kPa): 848.1 ± 0.2 kg/m3
- mass density (313.15 K, 5000 kPa): 852.2 ± 0.3 kg/m3
- mass density (313.15 K, 10000 kPa): 856.2 ± 0.3 kg/m3
- mass density (313.15 K, 15000 kPa): 860 ± 0.3 kg/m3
- mass density (313.15 K, 20000 kPa): 863.7 ± 0.3 kg/m3
- mass density (313.15 K, 25000 kPa): 867.3 ± 0.3 kg/m3
- mass density (313.15 K, 30000 kPa): 870.7 ± 0.3 kg/m3
- mass density (313.15 K, 35000 kPa): 874 ± 0.3 kg/m3
- mass density (313.15 K, 40000 kPa): 877.2 ± 0.3 kg/m3
- mass density (313.15 K, 45000 kPa): 880.3 ± 0.3 kg/m3
- mass density (323.15 K, 100 kPa): 838.6 ± 0.2 kg/m3
- mass density (323.15 K, 5000 kPa): 843 ± 0.3 kg/m3
- mass density (323.15 K, 10000 kPa): 847.2 ± 0.3 kg/m3
- mass density (323.15 K, 15000 kPa): 851.3 ± 0.3 kg/m3
- mass density (323.15 K, 20000 kPa): 855.2 ± 0.3 kg/m3
- mass density (323.15 K, 25000 kPa): 858.9 ± 0.3 kg/m3
- mass density (323.15 K, 30000 kPa): 862.5 ± 0.3 kg/m3
- mass density (323.15 K, 35000 kPa): 866 ± 0.3 kg/m3
- mass density (323.15 K, 40000 kPa): 869.4 ± 0.3 kg/m3
- mass density (323.15 K, 45000 kPa): 872.6 ± 0.4 kg/m3
- mass density (333.15 K, 100 kPa): 828.8 ± 0.2 kg/m3
- mass density (333.15 K, 5000 kPa): 833.5 ± 0.3 kg/m3
- mass density (333.15 K, 10000 kPa): 838 ± 0.3 kg/m3
- mass density (333.15 K, 15000 kPa): 842.3 ± 0.3 kg/m3
- mass density (333.15 K, 20000 kPa): 846.4 ± 0.3 kg/m3
- mass density (333.15 K, 25000 kPa): 850.4 ± 0.3 kg/m3
- mass density (333.15 K, 30000 kPa): 854.2 ± 0.3 kg/m3
- mass density (333.15 K, 35000 kPa): 857.9 ± 0.3 kg/m3
- mass density (333.15 K, 40000 kPa): 861.4 ± 0.4 kg/m3
- mass density (333.15 K, 45000 kPa): 864.8 ± 0.4 kg/m3
- mass density (343.15 K, 100 kPa): 819.2 ± 0.2 kg/m3
- mass density (343.15 K, 5000 kPa): 824.1 ± 0.3 kg/m3
- mass density (343.15 K, 10000 kPa): 829 ± 0.3 kg/m3
- mass density (343.15 K, 15000 kPa): 833.5 ± 0.3 kg/m3
- mass density (343.15 K, 20000 kPa): 837.9 ± 0.3 kg/m3
- mass density (343.15 K, 25000 kPa): 842.1 ± 0.3 kg/m3
- mass density (343.15 K, 30000 kPa): 846 ± 0.3 kg/m3
- mass density (343.15 K, 35000 kPa): 849.9 ± 0.4 kg/m3
- mass density (343.15 K, 40000 kPa): 853.5 ± 0.4 kg/m3
- mass density (343.15 K, 45000 kPa): 857 ± 0.4 kg/m3
- mass density (353.15 K, 100 kPa): 809.4 ± 0.2 kg/m3
- mass density (353.15 K, 5000 kPa): 814.7 ± 0.3 kg/m3
- mass density (353.15 K, 10000 kPa): 819.9 ± 0.3 kg/m3
- mass density (353.15 K, 15000 kPa): 824.7 ± 0.3 kg/m3
- mass density (353.15 K, 20000 kPa): 829.3 ± 0.3 kg/m3
- mass density (353.15 K, 25000 kPa): 833.7 ± 0.3 kg/m3
- mass density (353.15 K, 30000 kPa): 837.9 ± 0.3 kg/m3
- mass density (353.15 K, 35000 kPa): 841.9 ± 0.4 kg/m3
- mass density (353.15 K, 40000 kPa): 845.7 ± 0.4 kg/m3
- mass density (353.15 K, 45000 kPa): 849.4 ± 0.4 kg/m3

— the NIST ThermoML archive (doi:10.1016/j.fluid.2005.05.023)
